From paper PMC5893540, “Mechanistic insights into allosteric regulation of the A2A adenosine G protein-coupled receptor by physiological cations” (Nature Communications, 2018)
Values joined by “and” are separate entries in the source; they are usually repeats but may differ in a detail not shown here. Equal values may be shown once. “Also recorded” adds a separate entry of the source. Read-outs that look alike come from different tables or passages of the source.

Experiments:
BTFMA-labeled A2AR-V229C = molecular target: T1, BTFMA-labeled A2AR-V229C (Homo sapiens, UniProt P29274, V229C); test: 19F NMR of functional state populations (S1-2, S3, S3'); conditions: for effect on active state population: 20 mM cation, saturating NECA and Gαs peptide, 100 mM NaCl; for effect on populations of functional states: apo A2AR in MNG-3 micelles, divalent cations 100–500 mM, KCl with 10 or 100 mM NaCl
T1 construct: alpha-factor secretion leader (Fα-Factor) (N); Flag (N); TEV site (N); His10 (H10) (C); made in house; host or cells: Pichia pastoris SMD 1163
Protocol: Here, spectra are deconvolved into three resonances, referred to as S1−2, S3, and S3′, in keeping with previously published work[1].
NMR samples typically consisted of 250 μL volumes of 25–200 μM A2AR-V229C in 50 mM HEPES buffer (pH 7.4) and 100 mM NaCl, doped with 10% D2O. The receptor was stabilized in 0.1% MNG-3 and 0.02% CHS. All ^19F NMR experiments were performed on a 600 MHz Varian Inova spectrometer using a cryogenic triple resonance probe, with the high frequency channel tunable to either ^1H or ^19F. […] Most spectra were acquired with 10,000–50,000 scans depending on sample concentration. Processing typically involved zero filling, and exponential apodization equivalent to 20 Hz line broadening.

A2AR + Gs = molecular target: T2, A2AR + Gs (Homo sapiens, UniProt P29274, V229C); test: [3H]NECA binding in A2AR/Gs-infected Sf9 membranes; conditions: for effect of cation on specific [3H]NECA binding / EC50: 10 nM [3H]NECA; for effect of cation on specific [3H]NECA binding: increasing cation concentration; for effect on [3H]NECA high affinity saturation: 2.5 mM cation; for EC50: read-out: half-maximal cation concentration for enhancement of [3H]NECA binding, 100 mM NaCl
T2 construct: Flag (N); TEV site (N); His10 (H10) (C); expressed in transfected cells; host or cells: Sf9 insect cells, baculovirus co-infection (A2AR, Gαs, Gβγ); membranes
Source text: The above ^19F NMR observations are further recapitulated in radioligand binding assays in Sf9 cell membranes in which the identical A2AR construct was co-expressed with the heterotrimeric stimulatory G protein, Gαsβγ.
Error bars for radioligand binding assays are defined based on three replicates

apo A2AR-V229C [1] = molecular target: T3, apo A2AR-V229C (Homo sapiens, UniProt P29274, V229C); test: 25Mg NMR line width binding isotherm and Ca2+ competition; set-up: alpha-factor secretion leader (Fα-Factor) (N); Flag (N); TEV site (N); His10 (H10) (C); made in house; host or cells: Pichia pastoris SMD 1163
Protocol: The experiment was performed on an Agilent DD2-600 NMR, equipped with a 10 mm low gamma direct detect probe and low frequency pre-amp. The experimental parameters used were as follows: 20 °C, a Larmor frequency of 36.72 MHz, a spectral width of 2.5 kHz, 1.1 s acquisition time, 0.5 s relaxation time, a 30 µs 90° excitation pulse, and between 128 and 2048 scans depending on the signal-to-noise ratio. For the Kd determination of Mg^2+ the following protocol was used: A 1 M MgCl2 solution with 10 mM DyCl3 in D2O was used as a reference and was placed in a 5-mm OD tube. A sample of 1.5 mL of the protein solution was placed in a 10-mm OD NMR tube. The reference tube was thoroughly cleaned and inserted into the 10-mm tube and centered with a plastic cap. Titration volumes of 3–37 µL of 4.64 M MgCl2 were added directly to the 10-mm tube which was then gently mixed using a vortex shaker. The sample was allowed to equilibrate in the magnet for 10 min at the set temperature and the sample was then locked, tuned, gradient shimmed and acquired. […] The sample was allowed to equilibrate at the set temperature in the magnet for 10 min and then locked, tuned, gradient shimmed and acquired. The Kd and Ki values were determined, using GraphPad Prism 6 software, by fitting the data to the formula, y = A × x/(Kd + x), where x represents the cation concentration.

apo A2AR-V229C [2] = molecular target: T3, apo A2AR-V229C; test: 23Na NMR binding isotherm (line width / chemical shift)
Protocol: Relaxation dispersions associated with ^23Na CPMG experiments, shown in Fig. 2e, provide an additional measure of cation binding and exchange dynamics.
The experiments were performed on a 600 MHz Varian VNMRS spectrometer using a room temperature XH broadband probe (X-nucleus on the inner coil). […] An external ^23Na reference was prepared by mixing 50 mM NaCl and 50 mM TmCl3 in equal volumes prior to loading into the coaxial insert. […] Information regarding binding can be reliably obtained by observing the shift of the free peak and line broadening associated with fast exchange between “free” and “bound” states.

T1 sequence (P29274 1-316 V229C limits assumed): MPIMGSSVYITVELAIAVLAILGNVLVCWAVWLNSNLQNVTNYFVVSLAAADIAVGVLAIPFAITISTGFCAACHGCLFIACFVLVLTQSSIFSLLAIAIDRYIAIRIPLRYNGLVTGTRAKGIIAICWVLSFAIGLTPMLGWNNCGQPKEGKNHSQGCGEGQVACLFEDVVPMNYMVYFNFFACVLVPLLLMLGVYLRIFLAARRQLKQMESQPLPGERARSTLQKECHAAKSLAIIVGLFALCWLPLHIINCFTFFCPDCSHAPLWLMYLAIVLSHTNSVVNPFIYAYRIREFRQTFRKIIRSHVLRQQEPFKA
T2 sequence (P29274 1-316 V229C limits assumed): as above
T2 sequence (P63092 whole entry partner): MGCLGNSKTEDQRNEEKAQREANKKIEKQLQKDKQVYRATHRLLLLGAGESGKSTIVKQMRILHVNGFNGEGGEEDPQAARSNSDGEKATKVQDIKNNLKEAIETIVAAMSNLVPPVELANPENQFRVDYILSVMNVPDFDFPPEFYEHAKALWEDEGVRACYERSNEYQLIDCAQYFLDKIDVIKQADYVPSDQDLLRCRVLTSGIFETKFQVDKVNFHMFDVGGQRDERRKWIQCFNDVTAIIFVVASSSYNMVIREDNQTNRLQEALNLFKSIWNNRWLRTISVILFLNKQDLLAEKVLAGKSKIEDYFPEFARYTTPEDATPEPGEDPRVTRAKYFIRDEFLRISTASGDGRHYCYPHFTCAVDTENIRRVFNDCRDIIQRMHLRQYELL
T2 sequence (P62873 whole entry partner): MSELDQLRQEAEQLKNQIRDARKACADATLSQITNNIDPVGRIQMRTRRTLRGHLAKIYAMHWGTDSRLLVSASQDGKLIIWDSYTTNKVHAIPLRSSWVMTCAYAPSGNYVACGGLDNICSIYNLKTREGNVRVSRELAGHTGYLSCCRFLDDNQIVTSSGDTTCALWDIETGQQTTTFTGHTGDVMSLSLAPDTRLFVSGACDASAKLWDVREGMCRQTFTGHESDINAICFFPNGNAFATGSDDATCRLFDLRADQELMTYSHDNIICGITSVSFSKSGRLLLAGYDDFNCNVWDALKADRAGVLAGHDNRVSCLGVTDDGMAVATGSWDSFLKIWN
T2 sequence (P59768 2-68 partner limits assumed): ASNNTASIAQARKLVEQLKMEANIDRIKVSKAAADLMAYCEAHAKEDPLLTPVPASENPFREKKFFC
T3 sequence (P29274 1-316 V229C limits assumed): as the sequence (P29274 1-316 V229C limits assumed) above

SMILES | effect on active state population (BTFMA-labeled A2AR-V229C) | effect on populations of functional states (BTFMA-labeled A2AR-V229C) | effect of cation on specific [3H]NECA binding (A2AR + Gs) | also measured
[Ca+2].[Cl-].[Cl-] [Ca^2+, CaCl2] | detectable increase in the proportion of active states | shift the equilibrium of apo A2AR toward the active states | significantly enhance | effect on [3H]NECA high affinity saturation (A2AR + Gs): enhance maximal specific [^3H]NECA binding and affinity (Kd); EC50 (A2AR + Gs): 350 to 400 µM; EC50 (A2AR + Gs; listed as Ca2+): 350 µM; Ki (apo A2AR-V229C [1]; 50 mM 25Mg2+, increasing CaCl2, 50 µM apo-A2AR-V229C, read-out: Ki of Ca2+ displacement of Mg2+): 98 ± 41 mM
[Fe+2] [Fe^2+] | did not |  | no positive allosteric effects | 
NC(N)=NC(=O)c1nc(Cl)c(N2CCCCCC2)nc1N [HMA, 5-(N,N-hexamethylene)amiloride, reference compound] |  |  |  | competition with sodium in 23Na NMR binding isotherm (apo A2AR-V229C [2]; 100 mM NaCl, stoichiometric equivalents of HMA): compete with sodium
[Cl-].[K+] [KCl] |  | no significant change |  | 
[Cl-].[Cl-].[Mg+2] [Mg^2+, MgCl2] | detectable increase in the proportion of active states; also recorded: obvious increase in the active S3′ state population | shift the equilibrium of apo A2AR toward the active states | significantly enhance | effect on [3H]NECA high affinity saturation (A2AR + Gs): enhance maximal specific [^3H]NECA binding and affinity (Kd); EC50 (A2AR + Gs): 350 to 400 µM; EC50 (A2AR + Gs; listed as Mg2+): 350 µM; Kd (apo A2AR-V229C [1]; 50 µM apo-A2AR-V229C, 100 mM Na+, N=1, fitting error, read-out: dissociation constant Kd of MgCl2): 60 ± 15 mM
[Cl-].[Cl-].[Zn+2] [Zn^2+, ZnCl2] |  |  | reduce high affinity binding; also recorded: reduced binding; also recorded: no positive allosteric effects | 
[Cl-].[Na+] [sodium, NaCl] |  | shifts the equilibrium toward the inactive ensemble |  | Kd (apo A2AR-V229C [2]; read-out: dissociation constant Kd of sodium, apo A2AR-V229C 50 μM, line width-based isotherm, 10–1000 mM NaCl): 60 mM and ~60 mM
